Measurements reported in ChEMBL document CHEMBL1149915, “Natural products as leads to potential drugs: an old process or the new hope for drug discovery?” (J Med Chem, 2008).

Assays:
[1] = Inhibition of cyclin dependent kinase
[2] = Inhibition of beta-arylsulfotransferase 4
[3] = Inhibition of inositol 1,4,5-triphosphate 3-kinase
[4] = target: Cyclin-dependent kinase 1/cyclin B1 (Homo sapiens, UniProt P06493); test: Inhibition of Cdk1/cyclin B
[5] = target: Cyclin-dependent kinase 2 (Homo sapiens, UniProt P24941); test: Inhibition of Cdk2/cyclin A

Cyclin-dependent kinase 1/cyclin B1, sequence (P06493 whole entry): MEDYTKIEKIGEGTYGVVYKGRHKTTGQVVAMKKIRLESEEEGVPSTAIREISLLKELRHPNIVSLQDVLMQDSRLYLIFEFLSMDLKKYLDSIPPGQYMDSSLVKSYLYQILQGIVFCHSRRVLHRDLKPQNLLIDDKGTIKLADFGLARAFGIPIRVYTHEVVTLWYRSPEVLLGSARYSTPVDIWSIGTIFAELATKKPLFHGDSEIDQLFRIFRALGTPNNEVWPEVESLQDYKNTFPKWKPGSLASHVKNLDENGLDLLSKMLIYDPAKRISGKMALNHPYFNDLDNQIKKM
Cyclin-dependent kinase 1/cyclin B1, sequence (P14635 whole entry, further chain): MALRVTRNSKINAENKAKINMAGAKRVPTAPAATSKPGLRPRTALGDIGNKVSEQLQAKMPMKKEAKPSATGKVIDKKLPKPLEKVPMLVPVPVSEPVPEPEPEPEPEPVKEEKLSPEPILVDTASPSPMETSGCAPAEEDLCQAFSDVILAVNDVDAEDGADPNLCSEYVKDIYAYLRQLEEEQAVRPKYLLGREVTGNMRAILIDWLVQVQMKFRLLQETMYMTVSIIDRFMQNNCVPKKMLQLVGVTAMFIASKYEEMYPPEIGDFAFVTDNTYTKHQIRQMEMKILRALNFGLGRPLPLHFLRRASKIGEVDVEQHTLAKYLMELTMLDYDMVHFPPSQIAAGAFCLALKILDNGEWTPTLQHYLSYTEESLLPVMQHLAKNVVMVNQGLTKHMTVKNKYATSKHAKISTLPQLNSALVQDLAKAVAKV

With `CC[C@H](CO)Nc1nc(Nc2cccc(Cl)c2)c2ncn(C(C)C)c2n1` the IC50 [1] was 0.004 µM.

`Clc1nc(NCc2cccc3ccccc23)c2nc[nH]c2n1` showed a Ki [2] of 96 nM.

`CC[C@H](CO)Nc1nc(Nc2cc(Cl)cc(C(=O)O)c2)c2ncn(C(C)C)c2n1` showed an IC50 [1] of 0.004 µM.

With `O=[N+]([O-])c1ccc(CNc2nc(NCc3cccc(C(F)(F)F)c3)nc3[nH]cnc23)cc1` the IC50 [3] was 10.2 µM and the IC50 [4] was > 100 µM.

`OCCn1cnc2c(NCc3ccccc3)nc(NCc3ccc(Br)cc3)nc21` gave an IC50 [5] of 20 µM.

`Cn1cnc2c(NCc3ccccc3)nc(NCCO)nc21` [OLOMOUCINE] showed an IC50 [1] of 1000 µM.

With `CC[C@H](CO)Nc1nc(NCc2ccccc2)c2ncn(C(C)C)c2n1` [SELICICLIB] the IC50 [1] was 0.45 µM.
